Experimental data taken from patent publication US7524975B2, “Peroxisome proliferator activated receptor ligand and process for producing the same” (Kaneka Corporation, priority 2001, dated 2009).

Assays:
[1] = molecular target: T1, mouse PPARγ ligand-binding site (Mus musculus, UniProt P37238); test: Measurement of PPARγ ligand activity (GAL4 chimera luciferase reporter in CV-1 cells); type: cell-based; details: for PPARγ ligand activity: CV-1 cells, 24 hours, specific activity relative to untreated control (DMSO) = 1.00; for PPARγ ligand activity compared with positive control troglitazone (in words): compared with 0.5 μM troglitazone
T1 construct: expressed in transfected cells; host or cells: CV-1 cells (African green monkey kidney)
T1 sequence (P37238 174-475 isoform P37238-2): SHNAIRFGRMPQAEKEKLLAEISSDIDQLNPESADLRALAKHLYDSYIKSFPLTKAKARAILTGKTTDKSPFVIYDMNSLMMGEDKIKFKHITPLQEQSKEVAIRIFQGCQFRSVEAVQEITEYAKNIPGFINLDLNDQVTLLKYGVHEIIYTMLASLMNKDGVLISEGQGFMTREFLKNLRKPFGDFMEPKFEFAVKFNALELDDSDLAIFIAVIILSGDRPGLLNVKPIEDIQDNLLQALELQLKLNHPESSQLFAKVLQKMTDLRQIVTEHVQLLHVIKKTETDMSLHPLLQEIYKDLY
Method: CV-1 cells (cultured cells derived from the kidney of a male African green monkey) were inoculated on a 96-well culture plate in a concentration of 6×10^3 cells/well and incubated at 37° C. in 5% CO2 for 24 hours. The medium used was DMEM (Dulbecco's Modified Eagle Medium: GIBCO) containing 10% FBS (fetal bovine serum), 10 ml/L penicillin and streptomycin solution (containing 5000 IU/ml and 5,000 μg/ml, respectively: GIBCO) and 37 mg/L ascorbic acid (Wako Pure Chemical Industries, Ltd.). […] 4xUASg-luc is a reporter plasmid comprising four GAL4 response sequences (UASg) integrated into a region upstream of a luciferase gene. At about 24 hours after transfection, the medium was exchanged with a sample-containing medium, and the cells were cultured for 24 hours (n=4). The sample-containing medium was prepared by dissolving a sample in dimethyl sulfoxide (DMSO) in an amount of 1/1000 based on the medium, while for the untreated control, DMSO in an amount of 1/1000 based on the medium was used in place of the sample. After the cells were washed with a Ca- and Mg-containing phosphate buffered physiological saline (PBS+), LucLite (Packard) was added thereto, and the intensity of luciferase luminescence was measured with a TopCount microplate scintillation/luminescence counter (Packard).
As the control group, pM (plasmid from which the PPARγ ligand-binding site gene was removed) was measured in place of pM-mPPARγ in the same manner as for the measurement group. For each sample, the ratio (measurement group/control group) of the average luminescence intensity of the measurement group (n=4) to that of the control group was calculated, and the specific activity relative to the activity of the untreated control was regarded as the PPARγ ligand activity of the sample.

KK-Ay mouse [2] = test: Effect on type 2 diabetes mellitus model mouse: blood glucose level during mixed-feed administration; type: in vivo; details: KK-Ay mice; for Blood glucose level: means±SE, n=5
Method: Using a KK-Ay mouse which is genetically obese and type 2 diabetic animal, the effect of Compound 2 on diabetes mellitus was evaluated.
Compound 2 was prepared in the same procedure as in Example 1 and added to the basal diet such that the content of Compound 2 in a final feed was 0.1%. On the day before administration and 4 days after administration, a small amount of blood was collected from a mouse tail vein, and measured for its blood glucose level by a simple blood glucose measuring instrument Glutest Ace (Sanwa Kagaku Kenkyusho Co., Ltd.).

KK-Ay mouse [3] = test: Glucose tolerance test (sucrose loading) in KK-Ay mice; type: in vivo; details: for Blood glucose level: oral pioglitazone 20 mg/kg or Compound 2 100 mg/kg
Method: After the mixed feed was given for 1 week, the mice were fasted overnight and then subjected to a glucose tolerance test. […] To the non-additive group (control group), 0.5% CMC-Na solution was administered in an amount of 5 ml/kg. At a time of 30 minutes after administration, the mice were loaded with 2 g/kg of 40% sucrose solution. Before the sugar loading and at a time of 30 minutes, 1 hour and 2 hours after the sugar loading, a small amount of blood was collected from a mouse tail vein, and measured for its blood glucose level by a simple blood glucose measuring instrument Glutest Ace (Sanwa Kagaku Kenkyusho Co., Ltd.).

[4] = 4 days after administration, in feed: pioglitazone 0.02%, Compound 2 0.1%
[5] = 30 minutes after sugar loading (2 g/kg sucrose)
[6] = 1 hour after sugar loading (2 g/kg sucrose)
[7] = before sugar loading, fasted KK-Ay mice after 1 week mixed feed

Row | SMILES | PPARγ ligand activity ([1]; added concentration 2 μg/ml) | PPARγ ligand activity ([1]; added concentration 5 μg/ml) | PPARγ ligand activity ([1]; added concentration 10 μg/ml) | further results
1 | CC(C)=CCc1cc(C(=O)CC(=O)c2cc(CC=C(C)C)c(O)cc2O)ccc1O [Compound 27, Glycyrdione A] | 1.44 | 2.49 | 3.05 | –
2 | O=c1c(O)c(-c2ccc(O)c(O)c2)oc2cc(O)cc(O)c12 [Quercetin, quercetin, reference compound] | 1.15 | 1.72 | 1.70 | PPARγ ligand activity compared with positive control troglitazone (in words) [1]: not recognized to have a PPARγ ligand activity
3 | CC1(C)C=Cc2cc(-c3coc4cc(O)cc(O)c4c3=O)cc(O)c2O1 [Compound 12, Semilicoisoflavone B] | 1.86 | 2.66 | 3.15 | –
4 | COc1cc(O)ccc1/C=C/C(=O)c1ccc(O)cc1 [Compound 5, Echinatin] | 1.45 | 2.35 | 2.49 | –
5 | CC1(C)C=Cc2c(ccc3c2OC[C@@H](c2ccc(O)cc2O)C3)O1 [Compound 18, Glabridin] | 1.64 | 2.15 | 1.98 | –
6 | CCc1ccc(CCOc2ccc(CC3SC(=O)NC3=O)cc2)nc1 (stereo not drawn) [Pioglitazone, pioglitazone, reference compound] | – | – | – | Blood glucose level (KK-Ay mouse [2]; [4]): 191 ± 6 mg/dL; Blood glucose level (KK-Ay mouse [2]; before administration): 486 ± 26 mg/dL; Blood glucose level (KK-Ay mouse [3]; [5]): 158 ± 11 mg/dL; Blood glucose level (KK-Ay mouse [3]; [6]): 136 ± 5 mg/dL; Blood glucose level (KK-Ay mouse [3]; [7]): 89 ± 3 mg/dL
7 | COc1ccc(C2COc3c(ccc4c3C=CC(C)(C)O4)C2)c(O)c1O (stereo not drawn) [Compound 22, 3′-Hydroxyl-4′-O-methylglabridin] | 1.61 | 2.46 | 1.69 | –
8 | CC(C)=CCc1cc(C(=O)CC(=O)c2cc3c(cc2O)OC(C)(C)C=C3)ccc1O [Compound 28, Glycyrdione C] | 0.96 | 1.48 | 2.04 | PPARγ ligand activity compared with positive control troglitazone (in words) [1]: slightly weaker than that of a positive control containing 0.5 μM troglitazone

The next lines start with results.

Row | PPARγ ligand activity ([1]; added concentration 2 μg/ml) | PPARγ ligand activity ([1]; added concentration 5 μg/ml) | PPARγ ligand activity ([1]; added concentration 10 μg/ml) | SMILES | further results
9 | 1.44 | 2.27 | 4.07 | CC(C)=CCc1c(O)cc2oc(-c3ccc(O)cc3)c(O)c(=O)c2c1O [Compound 15, Licoflavonol] | –
10 | 3.22 | 3.28 | 4.06 | COc1cc2c(c(OC)c1CC=C(C)C)CC(c1ccc(O)cc1O)CO2 (stereo not drawn) [Compound 11, Glyasperin D] | –
11 | 2.90 | 3.73 | 4.41 | COc1c2c(cc(O)c1CC=C(C)C)OCC(c1ccc(O)cc1O)=C2 [Compound 7, Dehydroglyasperin C] | –
12 | 2.81 | 3.34 | 3.67 | COc1cc2oc(=O)c(-c3ccc(O)cc3O)cc2c(OC)c1CC=C(C)C [Compound 2, Glycyrin] | Blood glucose level (KK-Ay mouse [2]; [4]): 278 ± 14 mg/dL; Blood glucose levels on the fourth day after the administration (in words) (KK-Ay mouse [2]; 0.1% in feed): statistically significantly reduced; Blood glucose level (KK-Ay mouse [2]; before administration): 474 ± 27 mg/dL; Blood glucose level (KK-Ay mouse [3]; [5]): 225 ± 27 mg/dL; Blood glucose level (KK-Ay mouse [3]; [6]): 129 ± 8 mg/dL; Blood glucose level (KK-Ay mouse [3]; 2 hour after sugar loading (2 g/kg sucrose)): 100 ± 3 mg/dL; Increase in blood glucose levels after the sugar loading (in words) (KK-Ay mouse [3]; KK-Ay mice, 100 mg/kg oral): statistically significantly inhibited a rapid increase in blood glucose levels after the sugar loading; Blood glucose level (KK-Ay mouse [3]; [7]): 78 ± 4 mg/dL
13 | 2.60 | 3.53 | 3.02 | COc1cc2c(c(O)c1CC=C(C)C)C(=O)C(c1ccc(O)cc1O)CO2 (stereo not drawn) [Compound 8, Glyasperin B] | –
14 | 1.86 | 2.37 | 3.47 | COc1c(-c2ccc(O)cc2)oc2cc(O)cc(O)c2c1=O [Compound 14, Kaempferol3-O-methylester] | –
15 | 1.73 | 2.50 | 3.82 | CC(C)=CCc1cc(-c2oc3cc(O)cc(O)c3c(=O)c2O)ccc1O [Compound 6, Isolicoflavonol] | –
